The record followed here is patent US8906888B2, “Low-calcemic 16,23-diene 25-oxime analogs of 1α,25-dihydroxy vitamin D3” (Cytochroma Inc., priority 2005, dated 2014).

One series deals with MCF-7 cells. Kind of series: [3H]-Thymidine proliferation assay with MCF-7 cells. The format is cell-based. The note with it: breast cancer cells, 3 days, 3H-thymidine incorporation. As to the method: 1. Preparation of Cell Suspension. • When MCF-7 cells were 70-80% confluent, aspirated growth media. Washed the cells with 1×PBS. Trypsinized with trypsin-EDTA from the plate, collected cells from the tissue culture flask, centrifuged (500×g, 5 min) and resuspended in growth media.
2. Cell Plating. • Counted the cells and adjusted the cell density to 25,000/ml. Added 200 μl per well in a 96 well plate. Incubated plate for 24 h at 37° C. in a humidified atmosphere plus 5% CO2. Aspirated used media and replaced with 175 μl per well with proliferation media.
3. Substrate Addition. • Added 25 μl of compound (final concentration 10^−7 M, 5×10^−8 M, 10^−8 M, 5×10^−9 M, 10^−10 M or 0 M) into each designated well. Incubated plates for 3 days at 37° C. in a humidified atmosphere plus 5% CO2.
4. ^3H-Thymidine Incorporation. • Added ^3H-thymidine at 0.02 μCi per well and incubated at 37° C. in a humidified atmosphere plus 5% CO2 for 6 h.
5. Plate Harvesting. • Aspirated all media and washed cells with 1×PBS. Trypsinized cells for 30 min at 37° C. in a humidified atmosphere plus 5% CO2. Harvested cells onto a 96 well filter plate (Millipore) using a Tomtec Cell Harvestor, according to manufacturers instructions.
6. Scintillation Counting. • Added 25 μl of scintillation fluid per well. Counted the plate using a scintillation counter. Results: Compound (20R)-I(e) inhibited MCF-7 cell proliferation.
(Uptake of a labelled nucleoside into DNA is a usual measure of proliferation.)

Another series concerns the target T1, CYP24 (Homo sapiens, UniProt Q07973).
T1 construct: expressed in transfected cells; host or cells: V79-CYP24 cells (V79 = Chinese hamster lung fibroblasts, own knowledge; kept under hygromycin selection)
T1 sequence (Q07973 36-514): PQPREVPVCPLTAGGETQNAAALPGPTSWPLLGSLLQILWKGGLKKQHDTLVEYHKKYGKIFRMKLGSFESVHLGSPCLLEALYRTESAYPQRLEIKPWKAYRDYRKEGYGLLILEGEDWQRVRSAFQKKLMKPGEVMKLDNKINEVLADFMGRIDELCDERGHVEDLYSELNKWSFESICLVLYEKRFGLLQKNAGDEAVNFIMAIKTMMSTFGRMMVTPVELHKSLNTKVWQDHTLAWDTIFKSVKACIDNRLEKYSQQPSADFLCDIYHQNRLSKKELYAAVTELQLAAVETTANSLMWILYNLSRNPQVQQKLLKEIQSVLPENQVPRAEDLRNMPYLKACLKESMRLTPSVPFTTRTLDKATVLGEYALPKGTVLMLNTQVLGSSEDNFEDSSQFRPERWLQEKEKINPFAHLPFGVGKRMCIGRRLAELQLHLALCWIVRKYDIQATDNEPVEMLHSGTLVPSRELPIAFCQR
Kind of series: CYP24 enzyme assay (V79-CYP24 cells, 3H-1α,25(OH)2D3 substrate). The format is cell-based. The note with it: substrate 20 nM, 2 hours, read-out: IC50 in the inhibition of CYP24. How it is done:
(i) Material and Reagents:
Substrates (1 mM) reconstituted in isopropanol
1. Preparation of Cell Suspension • On the day of the assay, washed the monolayer of V79-CYP24 cells once with 1×PBS buffer and then trypsinized for 5 min at room temperature (approx. 22° C.). Added 1×PBS. Collected cells into tube, centrifuged cells (500×g, 5 min) and resuspended in DMEM+1% BSA media. Counted cells and adjusted density to 2 million/1 mL.
2. Cell Plating • Added 80 μl of cell suspension to appropriately labeled wells of a 96-well plate. Incubated plate for 45 minutes at 37° C. in a humidified atmosphere containing 5% CO2.
3. Compound Addition • Added 10 μl of inhibitor (10^−6 to 10^−10 M) and then after 35-40 min added 10 μl of substrate [^3H-1β]-1α,25(OH)2D3 (20 nM) for 2 hours at 37° C. in a humidified atmosphere containing 5% CO2. Both inhibitor and substrate were prepared in DMEM with 1% BSA media.
4. Lipid Extraction and Counting • Added 250 μl of methanol to stop the reaction and mixed. Added […] of dichloromethane, covered block and vortexed. Added […] of dichloromethane again, added […] of saturated KCl and vortexed. Centrifuged at 3000 rpm for 30 min. Triplicate 100 μl aliquots of aqueous fraction were mixed with 200 μl of scintillation fluid and the radioactivity was measured using a scintillation counter. All values were normalized for background. (iii) Results: • 1. […] (iv) Reference: 1. PCT Patent Application Serial No. PCT/CA03/00620

A short description of series [1]: Pharmacokinetics after i.v. administration in rats. The format is in vivo. The note with it: rat, iv, male Wistar rats, 16 mg/kg B.W. As to the method: A formulation of compound (20R)-I(e) dissolved in saline (0.9% NaCl): propylene glycol:ethanol (5:3:2; v/v/v) was prepared at a concentration of 20 mg/ml.
Nine male Wistar rats (150-200 g) were fasted 8 hours prior to the initiation of the study. At the initiation of the study, the nine rats received 0.8 ml/kg body weight (B.W.) of the dosing formulation by intravenous (i.v.) injection to deliver 16 mg of compound (20R)-I(e)/kg B.W. Blood was collected from three animals at 0 (day-1), 5, 15, 30, 60, 120, 180 and 240 minutes post dosing. At each time point, 1 ml of blood was collected from the orbital sinus in unpreserved Microtainer tubes. Separated serum samples were kept frozen at −80° C. until analysis. The concentration of compound (20R)-I(e) in the serum samples was quantified using a High Performance Liquid Chromatographic method with Mass Spectroscopy detection (LC MS/MS). An internal standard was added to an aliquot of […] of serum sample and extracted using solid phase extraction (SPE). Samples were passed through C18-SPE cartridges then compound (20R)-I(e) and the internal standard were eluted with 1 ml of methanol. Extracts were evaporated to dryness under nitrogen. The residues were reconstituted in […] of methanol:water (8:2; v/v) and analyzed by LC MS/MS. (iii) Results: Summary of the calculated pharmacokinetic parameters for the i.v. administration of a 16 mg/kg B.W. dose of compound (20R)-I(e) is in the Table below. The Area-Under-Curve (AUC) was calculated from T=0 to 240 min. The maximum concentration (Cmax) was determined from the mean serum concentration versus time profile. The elimination half life (T1/2) was calculated from the elimination phase of the concentration versus time profile assuming first order kinetic elimination.

Turning to `C=C1/C(=C\C=C2/CCC[C@]3(C)C([C@H](C)C/C=C/C(=NOC)C(C)(C)C)=CC[C@@H]23)C[C@@H](O)C[C@@H]1O` [(20R)-I(e)], in the series on MCF-7 cells, the “Inhibition of MCF-7 cell proliferation” value is recorded as “inhibited”. The IC50 at CYP24 was 20.7 nM. For the same molecule, the peak level in series [1] (mean serum concentration) (Cmax) was 38.9 ng/mL. Besides, in series [1] (serum, T=0 to 240 min), the AUC turned out to be 39.6 ng·h/mL. Moreover, in series [1] (serum, first order elimination assumed, read-out: T1/2 (elimination half life) (converted)), the half-life is 15 min.

The term IC50 denotes the point on the concentration scale where inhibition reaches its midpoint. What is called Cmax is the highest concentration seen after dosing. One may read the AUC as the area under the concentration-time curve, a measure of exposure. Low readings indicate less exposure, high ones more exposure.
